Results as given in patent publication US20210221848A1, “POLYMYXIN DERIVATIVES AND THEIR USE IN COMBINATION THERAPY TOGETHER WITH DIFFERENT ANTIBIOTICS” (priority 2014, published 2021).
Like-named read-outs stand apart in the source and are kept apart here.

Tests used:
E. coli [1] = experiment: MIC in the presence of a fixed concentration (2 μg/mL) of Rifampicin; type: cell-based, Escherichia coli; settings: Rifampicin 2 μg/mL
K. pneumoniae [2] = settings: absence of a second agent, Table 6B
P. aeruginosa [3] = settings: absence of a second agent, Table 6B
A. baumannii [4] = experiment: MIC in the presence of […] of rifampicin; type: cell-based, Acinetobacter baumannii
P. aeruginosa ATCC 27853 = experiment: In vivo efficacy, thigh infection in mice, IV dosing, 9 h model; set-up: species or system Pseudomonas aeruginosa; settings: mouse thigh, dose 3.4 mg/kg drug base IV at 1, 3.5 and 6 h post-infection
Procedure: Compounds were administered in solution by intravenous (IV) bolus injection into the lateral tail vein. […] At 1 hour post infection, 4 animals were humanely euthanized using pentabarbitone overdose to provide a pre-treatment control group. At 9 hours post infection, the clinical condition of all animals was assessed prior to them being humanely euthanized by pentabarbitone overdose. Animal weight was determined before both thighs were removed and weighed individually. Individual thigh tissue samples were homogenized in ice cold sterile phosphate buffered saline. Thigh homogenates were then quantitatively cultured onto cystine lactose electrolyte deficient (CLED) agar and incubated at 37° C. for 24 hours before colonies were counted.

K. pneumoniae [5] = experiment: MIC in the presence of a fixed concentration (2 μg/mL) of Rifampicin; type: cell-based, Klebsiella pneumoniae; settings: Rifampicin 2 μg/mL
E. coli [6] = settings: absence of a second agent, Table 6B
A. baumannii [7] = settings: absence of a second agent, Table 6B
[8] = tested on: P. aeruginosa strains with elevated MICs to Polymyxin B; experiment: MIC against strains with elevated MICs to Polymyxin B; type: cell-based, Pseudomonas aeruginosa; settings: Table 6D
Outline: (§1)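 Colonies picked from an 18-24 hour Mueller-Hinton agar plate are suspended directly and adjusted to 0.5 McFarland. Each MIC is run in duplicate. Values within 2-fold give the lower one; wider spread voids the assay; repeated testing yields the modal value.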

[9] = tested on: A. baumanii strains with elevated MICs to Polymyxin B; experiment: as above; type: cell-based, Acinetobacter baumannii; settings: Table 6D
Outline: as §1

E. coli [10] = experiment: MIC in 1:1 (wt:wt) combination with Rifampicin; type: cell-based, Escherichia coli; settings: 1:1 (wt:wt) with Rifampicin, total drug concentration
Procedure: (§2) The inoculum was prepared by making a direct suspension of isolated colonies (selected from an 18-24 hour Mueller-Hinton agar plate) adjusted to the 0.5 McFarland standard. […] The assays were performed in duplicate. […] In cases where the duplicate values varied by less than 2-fold, the lower of the two values is reported. If a variation of greater than 2-fold was observed, the assay was considered non-valid. Several of the compounds were subjected to multiple tests, and where this is the case, the MIC reflects the modal value obtained.
(§3) MIC values (microgram/mL) refer to the total drug concentration (i.e. test agent plus Rifampicin).

P. aeruginosa [11] = experiment: MIC in 1:1 (wt:wt) combination with Rifampicin; type: cell-based, Pseudomonas aeruginosa; settings: 1:1 (wt:wt) with Rifampicin, total drug concentration
Procedure: as §2, §3

A. baumannii [12] = experiment: MIC in 1:1 (wt:wt) combination with Rifampicin; type: cell-based, Acinetobacter baumannii; settings: A. baumannii 053; 1:1 (wt:wt) with Rifampicin; total drug concentration
Procedure: as §2, §3

K. pneumoniae [13] = experiment: MIC in 1:1 (wt:wt) combination with Rifampicin; type: cell-based, Klebsiella pneumoniae; settings: 1:1 (wt:wt) with Rifampicin, total drug concentration
Procedure: as §2, §3

[14] = tested on: K. pneumoniae strains with elevated MICs to Polymyxin B; experiment: MIC against strains with elevated MICs to Polymyxin B; type: cell-based, Klebsiella pneumoniae; settings: Table 6D
Outline: as §1

[15] = tested on: Acinetobacter baumannii NCTC 13301; settings: mouse thigh, 16 h model
[16] = tested on: E. coli strains with elevated MICs to Polymyxin B; experiment: MIC against strains with elevated MICs to Polymyxin B; type: cell-based, Escherichia coli; settings: Table 6D
Outline: as §1

[17] = tested on: Pseudomonas aeruginosa ATCC 27853; type: in vivo; settings: mouse lungs, P. aeruginosa ATCC 27853, SC at 2, 6 and 10 h post-infection, 16 h infection model, 17.2 mg/kg/dose free base
Procedure: Groups of 7 male neutropenic specific-pathogen-free CD-1 mice weighing 21.5-27.5 g were used. On Day 0, animals were infected with 0.04 mL inoculum by intranasal instillation into mouse nostrils and were kept in an upright position on a string rack for ˜10 min post-infection. […] At 2 h, the CFU count was determined from 3 mice and the remaining mice (7 per test compound groups) were treated with a subcutaneous injection of the drug at +2, 6 and 10 hr post-infection. Test compounds and the comparator polymyxin B were administered at four concentrations (2.6, 8.6, 17.2 and 25.8 mg/kg free base). The vehicle control group (7 mice) was treated with 0.9% saline for injection at 2, 6 and 10 h post-infection.
Sixteen hours after infection, the mice were euthanized humanely. The lungs of each animal were harvested, homogenized and quantitatively cultured onto CLED agar for CFU determination. Decrease of the total CFU compared to control counts at 16 h post-infection was determined for each dose group.
The in vivo efficacy of 4 compounds of the invention (D25, D36, D42 and D50) was evaluated in a mouse lung infection model of P. aeruginosa ATCC 27853. The model was setup as described above with the exception that groups of up to 8 mice were inoculated through intranasal instillation of ˜2.5×10^6 CFUs of P. aeruginosa isolate ATCC 27853 (1.0×10^5 CFU/lung). Test compounds were administered at two concentrations (equivalent to 4.3 and 17.2 mg/kg free base). Three dose levels of polymyxin B sulfate were used as comparator (equivalent to 4.3, 8.6 and 17.2 mg/kg free base).

Substance: (cis-5-cyclohexyl- piperidine)-3-carbonyl polymyxin B nonapeptide [Example D11]
- MIC in combination with Rifampicin, E. coli ATCC 25922 (E. coli [1]; Table 5C): ≤0.015 micrograms/mL
- MIC in combination with Rifampicin, E. coli ATCC 25922 (E. coli [1]; Table 5D): 0.125 micrograms/mL
- MIC in combination with Rifampicin, E. coli NCTC 13441 (E. coli [1]; Table 5C): 0.06 micrograms/mL
- MIC in combination with Rifampicin, E. coli NCTC 13441 (E. coli [1]; Table 5D): 0.06 micrograms/mL
- MIC, K. pneumoniae ATCC 4352 (K. pneumoniae [2]): 0.25 micrograms/mL
- MIC, K. pneumoniae ATCC BAA-2146 (K. pneumoniae [2]): 0.25 micrograms/mL
- MIC, P. aeruginosa ATCC 27853 (P. aeruginosa [3]): 0.5 micrograms/mL
- MIC, P. aeruginosa CCUG 59347 (P. aeruginosa [3]): 0.5 micrograms/mL
- MIC in combination with Rifampicin, A. baumannii ATCC BAA-747 (A. baumannii [4]; A. baumannii ATCC BAA-747, Table 5C): 0.06 micrograms/mL
- MIC in combination with Rifampicin, A. baumannii ATCC BAA-747 (A. baumannii [4]; A. baumannii ATCC BAA-747, Table 5D): 0.125 micrograms/mL
- MIC in combination with Rifampicin, A. baumannii NCTC 13424 (A. baumannii [4]; A. baumannii NCTC 13424, Table 5C): 0.5 micrograms/mL
- MIC in combination with Rifampicin, A. baumannii NCTC 13424 (A. baumannii [4]; A. baumannii NCTC 13424, Table 5D): 0.25 micrograms/mL
- Log reduction from vehicle (CFU/g) (P. aeruginosa ATCC 27853): 3.86 log10 CFU/g
- MIC in combination with Rifampicin, K. pneumoniae ATCC 4352 (K. pneumoniae [5]; Table 5C): 0.06 micrograms/mL
- MIC in combination with Rifampicin, K. pneumoniae ATCC 4352 (K. pneumoniae [5]; Table 5D): 0.125 micrograms/mL
- MIC in combination with Rifampicin, K. pneumoniae ATCC BAA-2146 (K. pneumoniae [5]; Table 5C): 1 micrograms/mL
- MIC in combination with Rifampicin, K. pneumoniae ATCC BAA-2146 (K. pneumoniae [5]; Table 5D): 0.5 micrograms/mL
- MIC, E. coli ATCC 25922 (E. coli [6]): 0.25 micrograms/mL
- MIC, E. coli NCTC 13441 (E. coli [6]): 0.25 micrograms/mL
- MIC, A. baumannii ATCC BAA-747 (A. baumannii [7]): 1 micrograms/mL
- MIC, A. baumannii NCTC 13424 (A. baumannii [7]): 0.5 micrograms/mL

Substance: (trans-5-(2- methylpropyl) piperidine)-3-carbonyl polymyxin B nonapeptide [Example D50]
- MIC P. aeruginosa 065 ([8]; strain 065, elevated MIC to Polymyxin B): 6 micrograms/mL
- MIC P. aeruginosa 066 ([8]; strain 066, elevated MIC to Polymyxin B): 4 micrograms/mL
- MIC P. aeruginosa 067 ([8]; strain 067, elevated MIC to Polymyxin B): >256 micrograms/mL
- MIC, K. pneumoniae ATCC 4352 (K. pneumoniae [2]): 0.06 micrograms/mL
- MIC, K. pneumoniae ATCC BAA-2146 (K. pneumoniae [2]): 0.125 micrograms/mL
- MIC A. baumannii 053 ([9]; strain 053, elevated MIC to Polymyxin B): 128 micrograms/mL
- MIC A. baumannii 056 ([9]; strain 056, elevated MIC to Polymyxin B): 32 micrograms/mL
- MIC A. baumannii 068 ([9]; strain 068, elevated MIC to Polymyxin B): 8 micrograms/mL
- MIC A. baumannii 070 ([9]; strain 070, elevated MIC to Polymyxin B): 16 micrograms/mL
- MIC, P. aeruginosa ATCC 27853 (P. aeruginosa [3]): 0.5 micrograms/mL
- MIC, P. aeruginosa CCUG 59347 (P. aeruginosa [3]): 1 micrograms/mL
- MIC in 1:1 combination with rifampicin, E. coli 059 (E. coli [10]; E. coli 059): ≤0.5 microgram/mL
- MIC in 1:1 combination with rifampicin, E. coli 060 (E. coli [10]; E. coli 060): ≤0.5 microgram/mL
- MIC in 1:1 combination with rifampicin, E. coli ATCC 25922 (E. coli [10]; E. coli ATCC 25922): ≤0.5 microgram/mL
- MIC in 1:1 combination with rifampicin, P. aeruginosa 063 (P. aeruginosa [11]; P. aeruginosa 063): 32 microgram/mL
- MIC in 1:1 combination with rifampicin, P. aeruginosa 068 (P. aeruginosa [11]; P. aeruginosa 068): 1 microgram/mL
- MIC in 1:1 combination with rifampicin, A. baumannii 053 (A. baumannii [12]): ≤0.5 microgram/mL
- MIC in 1:1 combination with rifampicin, K. pneumoniae 062 (K. pneumoniae [13]; K. pneumoniae 062): 1 microgram/mL
- MIC in 1:1 combination with rifampicin, K. pneumoniae CCUG 59348 (K. pneumoniae [13]; K. pneumoniae CCUG 59348): ≤0.5 microgram/mL
- MIC K. pneumoniae 062 ([14]; strain 062, elevated MIC to Polymyxin B): 64 micrograms/mL
- MIC K. pneumoniae 063 ([14]; strain 063, elevated MIC to Polymyxin B): 16 micrograms/mL
- MIC K. pneumoniae 064 ([14]; strain 064, elevated MIC to Polymyxin B): 4 micrograms/mL
- MIC K. pneumoniae 655 ([14]; strain 655, elevated MIC to Polymyxin B): 16 micrograms/mL
- MIC, E. coli ATCC 25922 (E. coli [6]): 0.06 micrograms/mL
- MIC, E. coli NCTC 13441 (E. coli [6]): 0.06 micrograms/mL
- Mean log10 CFU reduction vs. control ([15]; 0.215 mg/kg/dose free base SC at 2, 6 and 10 h post-infection): 0.69 log10 CFU
- Mean log10 CFU reduction vs. control ([15]; 0.86 mg/kg/dose free base SC at 2, 6 and 10 h post-infection): 4.74 log10 CFU
- Mean log10 CFU reduction vs. control ([15]; 2.6 mg/kg/dose free base SC at 2, 6 and 10 h post-infection): 5.05 log10 CFU
- Mean log10 CFU reduction vs. control ([15]; 8.6 mg/kg/dose free base SC at 2, 6 and 10 h post-infection): 5.79 log10 CFU
- Mean log10 CFU reduction vs. control ([15]; 17.2 mg/kg/dose free base SC at 2, 6 and 10 h post-infection): 5.69 log10 CFU
- MIC E. coli 058 ([16]; strain 058, elevated MIC to Polymyxin B): 4 micrograms/mL
- MIC E. coli 059 ([16]; strain 059, elevated MIC to Polymyxin B): 8 micrograms/mL
- MIC E. coli 060 ([16]; strain 060, elevated MIC to Polymyxin B): 4 micrograms/mL
- MIC E. coli 061 ([16]; strain 061, elevated MIC to Polymyxin B): 8 micrograms/mL
- MIC, A. baumannii ATCC BAA-747 (A. baumannii [7]): 0.25 micrograms/mL
- MIC, A. baumannii NCTC 13424 (A. baumannii [7]): 0.25 micrograms/mL
- Mean log10 CFU reduction vs. control [17]: 5.29 log10 CFU
